Molecules are shown by their SMILES. Read-outs that look alike come from different tables or passages of the source.

Series [1] concerns Gastric Acid Output. Description: Gastric Antisecretory Activity in the Two Hour Pylorus Ligated (Shay) Rat. Conditions: 2 h. The format is in vivo, rat (Male Long Evans). The text has this:
Med. Res., 3, 86 (1975). […] One of the standard animal models for determining gastric antisecretory activity of histamine H2 -antagonists is the pylorus ligated rat.
Determination of Gastric Antisecretory Activity in the Two Hour Pylorus Ligated (Shay) Rat
The pyloric ligation procedure in the rat was designed by Shay et al., Gastroenterology, 5, 53 (1945) for the study of perforating gastric ulcers; however, as the method became known, it was also employed as a means of studying rat gastric secretion, Shay et al., Gastroenterology, 26, 906 (1954), Brodie, D, A. Am. J. Dig. Dis., 11, 231 (1966). A modification of this procedure is presently used to evaluate compounds for gastric antisecretory activity.
Male Long Evans rats, 280-300 gm., are used. The animals are placed in individual cages and fasted for 24 hours with free access to water. Under ether anesthesia, the stomach is reached through a midline incision, and a cotton-thread ligature is placed around the pylorus. After wound closure, ether administration is stopped and the test compound or control vehicle is administered either intraperitoneally or subcutaneously in a volume of 1 ml./kg. All compounds are solubilized with one equivalent of HCl and brought to the proper volume with water. The animals are returned to their cages from which the water bottles have been removed and two hours later are sacrificed with ether. The stomach is removed and the two hour gastric collection is drained into a graduated test tube for volume determination. Titratable acidity is measured by titrating a one ml. sample to pH 7.0 with 0.02 NaOH, using an Autoburet and electrometric pH meter (Radiometer). Titratable acid output is calculated in microequivalents by multiplying the volume in milliliters by the acid concentration in milliequivalents per liter. The percent inhibition of acid output is calculated as follows [formula] At least five rats are used at each dosage level, and a minimum of three dosage levels are utilized for determination of a dose response curve. Initially this test was conducted utilizing intraperitoneal injection of the test compound or control vehicle. […] The route of administration of each compound is noted in Table 1.

Series [2] has as its system gastric secretion. The conditions noted are these: cited from earlier work.
For series [3] the following is noted: clinical; cited from earlier work.
The test system of series [4] is H2 -receptor. The conditions noted are these: cited from earlier work.
The conditions of series [5]: in vivo; cited from earlier work.
The subject of series [6] is peptic ulcer disease. The conditions noted are these: Gray et al., Lancet, 1, 8001 (1977); cited from earlier work.
The mark [7] stands for this setting: sc, s.c. administration, two hour gastric acid output, 95% confidence limits in parenthesis, read-out: ED50.

The ED50 is the dose that gives a 50% effect, or the effect in half of the subjects. For the compound `NC1=NS(=O)(=O)N=C1NCCCOc1cccc(CN2CCOCC2)c1` [146 d], in series [1] (setting [7]), the ED50 was found to be 0.28 µmol/kg.

In the case of `CN(C)Cc1ccc(CSCCNC2=NS(=O)(=O)N=C2N2CCCCC2)o1` [Example 102, 3-{2-[(5-Dimethylaminomethyl-2-furyl)methylthio]ethylamino}-4-piperidino-1,2,5-thiadiazole 1,1-dioxide], the ED50 in series [1] (setting [7]) is around 15 µmol/kg.

For `CNC1=NS(=O)(=O)N=C1NCCCOc1cccc(CN2CCCCCC2)c1` [144 c], the ED50 in series [1] (setting [7]) came to 0.14 µmol/kg.

Take `CNC1=NS(=O)(=O)N=C1NCCSCc1ccc(CN(C)C)o1` [11 B]: in series [1] (ip, i.p. administration, two hour gastric acid output, 95% confidence limits in parenthesis, read-out: ED50), the ED50 is 0.69 µmol/kg.

With `CNC1=NS(=O)(=O)N=C1NCCCOc1cccc(CN2CCC(C)CC2)c1` [144 b], the ED50 in series [1] (setting [7]) was 0.025 µmol/kg.

Take `CNC1=NS(=O)(=O)N=C1NCCCOc1cccc(CN2CCCC2)c1` [144 a]: the ED50 in series [1] (setting [7]) stood at 0.095 µmol/kg.

Consider `CNC(=S)NCCSCc1nc[nH]c1C` [Metiamide], for which the oral activity entry in series [2] (in man, oral) is “orally active in man”. Further, the “toxicity (agranulocytosis)” value in series [3] is on record as “toxicity (agranulocytosis)”. In series [4], the “H2 -antagonist potency/effectiveness relative to another antagonist” value was “more potent than burimamide”.

Turning to `CN(C)Cc1ccc(CSCCNC2=NS(=O)(=O)N=C2N(C)C)o1` [Example 28, 3-{2-[(5-Dimethylaminomethyl-2-furyl)methylthio]ethylamino}-4-dimethylamino-1,2,5-thiadiazole 1,1-dioxide], the ED50 in series [1] (setting [7]) worked out at 1.39 µmol/kg.

For `Nc1n[s+]([O-])nc1NCCCOc1cccc(CN2CCCC2)c1` (stereo not shown) [145 a], the ED50 in series [1] (setting [7]) was 0.056 µmol/kg.

In the case of `CNCc1ccc(CSCCNC2=NS(=O)(=O)N=C2NC)o1` [20 A], the ED50 in series [1] (setting [7]) turned out to be 1.15 µmol/kg.

Consider `CNC1=NS(=O)(=O)N=C1NCCCOc1cccc(CN2CCOCC2)c1` [144 d], for which, in series [1] (setting [7]), the ED50 was 0.91 µmol/kg.

In the case of `CNC(=S)NCCCCc1cnc[nH]1` [Burimamide], the “inhibition of gastric secretion” value in series [2] (animals and man) was “inhibits gastric secretion in animals and man”. Besides, the oral absorption result in series [5] is on record as “poor”.

`CNC(=NC#N)NCCSCc1nc[nH]c1C` [Cimetidine] registered an ED50 in series [1] of around 9 µmol/kg. For the same compound, in series [6], the “therapeutic effect in peptic ulcer disease” value is on record as “effective therapeutic agent in the treatment of peptic ulcer disease”. Moreover, the “toxicity (agranulocytosis)” value in series [3] is given as “without producing agranulocytosis”. For the same compound, the “H2 -antagonist potency/effectiveness relative to another antagonist” value in series [4] was “as effective an H2 -antagonist as metiamide”.

Turning to `Nc1n[s+]([O-])nc1NCCCOc1cccc(CN2CCCCCC2)c1` (stereo not shown) [145 c], the ED50 in series [1] (setting [7]) turned out to be 0.025 µmol/kg.

Consider `Nc1n[s+]([O-])nc1NCCCOc1cccc(CN2CCCCCCC2)c1` (stereo not shown) [145 d], for which the ED50 in series [1] (setting [7]) worked out at 0.05 µmol/kg.

`CCCCCCCCCCCCNC1=NS(=O)(=O)N=C1NCCSCc1ccc(CN(C)C)o1` [Example 106, 3-{2-[(5-Dimethylaminomethyl-2-furyl)methylthio]ethylamino}-4-dodecylamino-1,2,5-thiadiazole 1,1-dioxide]: the ED50 in series [1] (setting [7]) was around 80 µmol/kg.

On to `NC1=NS(=O)(=O)N=C1NCCCOc1cccc(CN2CCCC2)c1` [146 a], for which the median effective dose (ED50) in series [1] (setting [7]) was 0.023 µmol/kg.

Consider `CN(C)Cc1ccc(CSCCNC2=NS(=O)(=O)N=C2NCCSCc2ccc(CN(C)C)o2)o1` [11 C], for which the ED50 in series [1] (setting [7]) turned out to be 0.2 µmol/kg.

For `CC1CCN(Cc2cccc(OCCCNc3n[s+]([O-])nc3N)c2)CC1` (stereo not shown) [145 b], the ED50 in series [1] (setting [7]) is around 0.06 µmol/kg.
